Laboratory results published in paper PMC12196213, “New Insights into the Anticancer Effects and Toxicogenomic Safety of Two β-Lapachone Derivatives” (Pharmaceuticals, 2025).

Legend:
[1] = test system: L929 (murine fibroblasts); assay: MTT cytotoxicity assay, L929; format: cell-based; conditions: Mus musculus, L929, 72 h
Experimental: To assess the cytotoxicity of the compounds, the MTT [3-(4,5-dimethylthiazol-2-yl)-2,5-diphenyltetrazolium bromide] assay was employed. The cells (2 × 10^5/mL) were incubated with the substances at concentrations ranging from 0.78 to 25 µg/mL. β-lap was used as a positive control. After 24, 48, or 72 h of incubation, MTT was added at a concentration of 5 mg/mL. Cell viability in different treatments was compared to the negative control using the following formula: Cell viability%=mean absorbance of treated samples/mean absorbance of negative control×100 The IC50 (the concentration that inhibits 50% of cell growth compared to the negative control) was calculated using nonlinear regression in GraphPad Prism 8.0 for Windows (GraphPad Demo Software, San Diego, CA, USA). Experiments were performed in triplicate and in two independent experiments. The protocol is also described in other previous publications.

CDK9/CyclinT = CDK9/CyclinT (Homo sapiens, UniProt P50750); assay: ADP-Glo kinase assay; format: biochemical; conditions: 10 µM ATP, read-out: % of residual activity; for remaining activity at 1 µM: 1 µM compound; for remaining activity at 10 µM: 10 µM compound
Experimental: (§1) Kinase enzymatic activities of CDK5/p25, CDK9/CyclinT, HASPIN, PIM1, GSK3β, CK1ε, ABL1, and JAK3 were assayed using the luminescent ADP detection assay described in Zegzouti et al. (ADP-GloTM assay kit provided by Promega, Madison, WI, USA). Briefly, the reactions were carried out in appropriate kinase buffer, with either protein or peptide as substrate in the presence of 10 µM ATP. Assay conditions used for each kinase tested here are described in Ibrahim et al.. The Envision (PerkinElmer, Waltham, MA, USA) microplate luminometer was used to measure the transmitted signal expressed in Relative Light Unit (RLU). In order to determine the half maximal inhibitory concentration (IC50), the assays were performed in duplicate in the absence or presence of increasing doses of the tested compounds. Kinase activities are expressed in % of maximal activity, i.e., measured in the absence of inhibitor but with a similar dose of DMSO (solvent of the tested compounds).

PIM1 = PIM1 (Homo sapiens, UniProt P11309); assay: ADP-Glo kinase assay; format: biochemical; conditions: for remaining activity at 1 µM: PIM1, 1 µM compound; for remaining activity at 1 µM / remaining activity at 10 µM: 10 µM ATP, read-out: % of residual activity; for remaining activity at 10 µM: PIM1, 10 µM compound
Experimental: as §1

JAK3 = biological target: T1, JAK3 (Homo sapiens, UniProt P52333); assay: ADP-Glo kinase assay; format: biochemical; conditions: for remaining activity at 1 µM: JAK3, 1 µM compound; for remaining activity at 1 µM / remaining activity at 10 µM: 10 µM ATP, read-out: % of residual activity; for remaining activity at 10 µM: JAK3, 10 µM compound
T1 sequence (P52333 1-1124): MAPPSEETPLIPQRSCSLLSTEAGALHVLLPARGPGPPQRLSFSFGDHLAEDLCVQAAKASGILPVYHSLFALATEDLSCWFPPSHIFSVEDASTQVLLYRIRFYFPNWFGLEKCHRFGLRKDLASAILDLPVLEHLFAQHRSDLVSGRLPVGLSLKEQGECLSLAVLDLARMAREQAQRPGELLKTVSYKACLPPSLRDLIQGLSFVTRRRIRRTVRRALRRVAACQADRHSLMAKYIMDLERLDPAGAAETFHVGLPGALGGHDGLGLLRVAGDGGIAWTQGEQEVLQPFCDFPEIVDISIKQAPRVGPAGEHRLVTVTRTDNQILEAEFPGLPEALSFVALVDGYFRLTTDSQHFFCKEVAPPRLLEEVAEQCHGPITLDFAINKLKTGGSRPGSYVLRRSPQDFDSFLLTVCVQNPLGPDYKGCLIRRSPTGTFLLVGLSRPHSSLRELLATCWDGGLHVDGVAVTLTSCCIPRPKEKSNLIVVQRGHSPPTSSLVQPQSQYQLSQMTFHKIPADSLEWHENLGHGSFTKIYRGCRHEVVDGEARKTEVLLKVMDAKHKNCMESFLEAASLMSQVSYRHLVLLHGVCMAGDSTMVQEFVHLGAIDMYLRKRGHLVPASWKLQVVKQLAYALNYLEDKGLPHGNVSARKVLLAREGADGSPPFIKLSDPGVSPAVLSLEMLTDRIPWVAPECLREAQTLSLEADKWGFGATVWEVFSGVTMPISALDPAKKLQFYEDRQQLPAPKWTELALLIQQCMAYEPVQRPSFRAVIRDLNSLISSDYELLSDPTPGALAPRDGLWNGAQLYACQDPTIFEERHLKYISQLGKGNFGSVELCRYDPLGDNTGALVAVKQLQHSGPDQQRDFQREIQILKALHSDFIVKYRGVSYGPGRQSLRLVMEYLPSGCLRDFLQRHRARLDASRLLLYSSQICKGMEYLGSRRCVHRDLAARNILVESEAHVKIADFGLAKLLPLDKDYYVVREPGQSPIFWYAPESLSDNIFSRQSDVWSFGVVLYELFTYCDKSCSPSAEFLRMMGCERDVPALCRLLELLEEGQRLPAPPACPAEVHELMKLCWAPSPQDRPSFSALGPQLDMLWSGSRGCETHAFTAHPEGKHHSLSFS
Experimental: as §1

CK1ε = CK1ε (Homo sapiens, UniProt P49674); assay: ADP-Glo kinase assay; format: biochemical; conditions: 10 µM ATP, read-out: % of residual activity; for remaining activity at 1 µM: 1 µM compound; for remaining activity at 10 µM: 10 µM compound
Experimental: as §1

GSK3β = GSK3β (Homo sapiens, UniProt P49841); assay: ADP-Glo kinase assay; format: biochemical; conditions: for remaining activity at 1 µM: 1 µM compound; for remaining activity at 1 µM / remaining activity at 10 µM: read-out: % of residual activity; for remaining activity at 10 µM: 10 µM compound
Experimental: as §1

ABL1 = ABL1 (Homo sapiens, UniProt P00519); assay: ADP-Glo kinase assay; format: biochemical; conditions: 10 µM ATP, read-out: % of residual activity; for remaining activity at 1 µM: ABL1, 1 µM compound; for remaining activity at 10 µM: ABL1, 10 µM compound
Experimental: as §1

CDK5/p25 = CDK5/p25 (Homo sapiens, UniProt Q00535); assay: ADP-Glo kinase assay; format: biochemical; conditions: 10 µM ATP, read-out: % of residual activity; for remaining activity at 1 µM: CDK5/p25, 1 µM compound; for remaining activity at 10 µM: CDK5/p25, 10 µM compound
Experimental: as §1

[2] = PIM1, dose–response curve, Figure 5
[3] = JAK3, dose–response curve, Figure 5

ABL1, sequence (P00519 whole entry): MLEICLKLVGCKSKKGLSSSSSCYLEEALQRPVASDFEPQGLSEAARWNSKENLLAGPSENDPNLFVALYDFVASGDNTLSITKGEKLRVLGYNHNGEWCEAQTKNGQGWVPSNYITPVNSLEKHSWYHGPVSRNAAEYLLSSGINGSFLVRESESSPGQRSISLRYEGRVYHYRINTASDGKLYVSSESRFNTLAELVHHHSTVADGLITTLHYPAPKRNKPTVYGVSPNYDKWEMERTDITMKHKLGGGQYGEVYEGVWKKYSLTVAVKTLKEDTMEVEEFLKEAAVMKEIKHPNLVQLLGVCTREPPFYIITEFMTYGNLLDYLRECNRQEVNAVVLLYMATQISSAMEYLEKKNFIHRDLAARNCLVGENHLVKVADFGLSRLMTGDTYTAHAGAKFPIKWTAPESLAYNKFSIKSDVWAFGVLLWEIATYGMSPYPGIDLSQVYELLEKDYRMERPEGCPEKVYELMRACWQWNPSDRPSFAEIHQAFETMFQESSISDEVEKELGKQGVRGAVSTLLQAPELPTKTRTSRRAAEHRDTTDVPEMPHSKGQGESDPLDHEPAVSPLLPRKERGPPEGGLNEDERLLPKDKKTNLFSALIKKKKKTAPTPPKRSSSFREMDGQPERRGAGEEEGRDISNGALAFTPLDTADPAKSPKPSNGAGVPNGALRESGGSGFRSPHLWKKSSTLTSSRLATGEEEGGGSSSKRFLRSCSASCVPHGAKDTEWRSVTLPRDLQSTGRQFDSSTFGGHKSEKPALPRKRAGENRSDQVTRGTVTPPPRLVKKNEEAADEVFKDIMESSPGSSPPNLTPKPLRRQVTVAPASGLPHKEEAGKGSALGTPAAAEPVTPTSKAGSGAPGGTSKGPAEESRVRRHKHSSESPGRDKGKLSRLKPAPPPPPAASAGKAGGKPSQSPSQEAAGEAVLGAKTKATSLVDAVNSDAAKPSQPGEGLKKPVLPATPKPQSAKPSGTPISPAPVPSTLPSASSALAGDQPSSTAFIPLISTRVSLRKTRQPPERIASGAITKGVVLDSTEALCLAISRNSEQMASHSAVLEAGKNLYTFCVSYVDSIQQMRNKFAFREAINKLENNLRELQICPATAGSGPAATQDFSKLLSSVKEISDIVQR
CDK9/CyclinT, sequence (P50750 whole entry): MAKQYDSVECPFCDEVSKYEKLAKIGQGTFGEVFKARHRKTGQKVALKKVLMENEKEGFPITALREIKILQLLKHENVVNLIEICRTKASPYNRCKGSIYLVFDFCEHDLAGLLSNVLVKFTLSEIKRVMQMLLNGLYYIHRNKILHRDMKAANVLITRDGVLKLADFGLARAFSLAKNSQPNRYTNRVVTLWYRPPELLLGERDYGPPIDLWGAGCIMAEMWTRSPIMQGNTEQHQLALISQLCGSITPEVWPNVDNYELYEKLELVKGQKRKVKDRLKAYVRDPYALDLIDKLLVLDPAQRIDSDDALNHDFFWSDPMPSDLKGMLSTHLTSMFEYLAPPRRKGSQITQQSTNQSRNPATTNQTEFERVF
CDK9/CyclinT, sequence (O60563 whole entry partner): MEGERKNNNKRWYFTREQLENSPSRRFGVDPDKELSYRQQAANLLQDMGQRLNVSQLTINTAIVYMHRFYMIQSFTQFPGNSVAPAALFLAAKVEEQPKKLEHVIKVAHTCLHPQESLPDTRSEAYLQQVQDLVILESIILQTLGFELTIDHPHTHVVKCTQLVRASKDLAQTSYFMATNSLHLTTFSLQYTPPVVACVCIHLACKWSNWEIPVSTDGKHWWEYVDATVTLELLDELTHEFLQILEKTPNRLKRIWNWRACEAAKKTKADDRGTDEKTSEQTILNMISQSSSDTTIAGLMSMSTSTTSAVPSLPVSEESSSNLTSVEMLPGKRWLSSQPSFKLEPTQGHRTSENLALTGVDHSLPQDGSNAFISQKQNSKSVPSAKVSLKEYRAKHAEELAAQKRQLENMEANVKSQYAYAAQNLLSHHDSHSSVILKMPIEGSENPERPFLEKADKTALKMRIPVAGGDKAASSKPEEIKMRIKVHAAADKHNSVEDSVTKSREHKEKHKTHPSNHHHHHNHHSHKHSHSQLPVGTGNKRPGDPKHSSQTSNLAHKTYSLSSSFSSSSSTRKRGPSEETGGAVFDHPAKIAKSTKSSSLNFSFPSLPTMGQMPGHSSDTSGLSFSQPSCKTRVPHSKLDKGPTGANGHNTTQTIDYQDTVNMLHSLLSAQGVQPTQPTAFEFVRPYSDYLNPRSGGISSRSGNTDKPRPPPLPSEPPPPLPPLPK
GSK3β, sequence (P49841 whole entry): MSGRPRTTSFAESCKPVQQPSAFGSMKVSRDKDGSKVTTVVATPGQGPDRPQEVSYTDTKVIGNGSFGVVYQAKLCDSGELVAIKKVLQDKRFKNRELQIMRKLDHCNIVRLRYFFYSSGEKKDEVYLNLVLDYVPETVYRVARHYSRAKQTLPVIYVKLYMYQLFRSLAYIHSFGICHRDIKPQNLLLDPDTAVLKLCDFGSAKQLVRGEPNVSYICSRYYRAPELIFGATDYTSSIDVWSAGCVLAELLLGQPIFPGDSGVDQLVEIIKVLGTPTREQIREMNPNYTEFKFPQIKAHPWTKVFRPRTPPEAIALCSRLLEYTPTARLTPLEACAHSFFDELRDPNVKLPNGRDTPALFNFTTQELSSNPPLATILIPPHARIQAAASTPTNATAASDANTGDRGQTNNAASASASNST
PIM1, sequence (P11309 whole entry): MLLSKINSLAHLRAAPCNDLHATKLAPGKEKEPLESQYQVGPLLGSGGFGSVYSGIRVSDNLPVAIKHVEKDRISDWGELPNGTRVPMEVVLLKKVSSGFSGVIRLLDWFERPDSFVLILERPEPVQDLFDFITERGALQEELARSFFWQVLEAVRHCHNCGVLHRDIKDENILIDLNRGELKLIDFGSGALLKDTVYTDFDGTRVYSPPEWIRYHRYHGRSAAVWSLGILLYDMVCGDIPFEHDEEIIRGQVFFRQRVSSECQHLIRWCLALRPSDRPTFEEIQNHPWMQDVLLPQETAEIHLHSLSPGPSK
CDK5/p25, sequence (Q00535 whole entry): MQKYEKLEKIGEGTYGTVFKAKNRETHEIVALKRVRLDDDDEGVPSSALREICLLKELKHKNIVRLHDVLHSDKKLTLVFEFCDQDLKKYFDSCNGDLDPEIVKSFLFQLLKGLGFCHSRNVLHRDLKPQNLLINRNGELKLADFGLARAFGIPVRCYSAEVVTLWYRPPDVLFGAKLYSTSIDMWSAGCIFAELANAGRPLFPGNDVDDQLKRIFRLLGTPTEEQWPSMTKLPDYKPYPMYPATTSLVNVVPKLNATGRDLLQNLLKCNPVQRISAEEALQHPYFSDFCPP
CDK5/p25, sequence (Q15078 99-307 partner limits assumed): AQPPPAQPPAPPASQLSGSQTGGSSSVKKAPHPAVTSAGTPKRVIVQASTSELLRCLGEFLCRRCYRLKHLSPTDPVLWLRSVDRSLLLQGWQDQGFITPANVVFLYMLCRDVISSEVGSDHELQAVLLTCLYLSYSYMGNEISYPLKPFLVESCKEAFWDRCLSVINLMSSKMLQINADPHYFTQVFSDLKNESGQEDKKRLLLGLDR
CK1ε, sequence (P49674 whole entry): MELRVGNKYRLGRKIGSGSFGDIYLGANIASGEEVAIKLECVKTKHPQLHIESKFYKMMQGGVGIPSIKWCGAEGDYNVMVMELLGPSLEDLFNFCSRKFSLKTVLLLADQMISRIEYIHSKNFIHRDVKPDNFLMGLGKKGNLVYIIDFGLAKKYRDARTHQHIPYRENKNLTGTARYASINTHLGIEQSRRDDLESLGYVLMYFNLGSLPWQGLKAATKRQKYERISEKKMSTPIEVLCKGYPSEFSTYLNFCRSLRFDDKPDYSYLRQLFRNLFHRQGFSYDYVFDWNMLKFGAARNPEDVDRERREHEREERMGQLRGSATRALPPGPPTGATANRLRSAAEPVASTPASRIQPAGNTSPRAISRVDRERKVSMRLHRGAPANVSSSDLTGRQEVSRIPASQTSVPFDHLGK

| Structure (SMILES) | IC50 [1] [µM] | remaining activity at 1 µM (CDK9/CyclinT) [%] | remaining activity at 10 µM (CDK9/CyclinT) [%] | remaining activity at 1 µM (PIM1) [%] | IC50 (PIM1; PIM1, 10 µM ATP) [µM] | remaining activity at 10 µM (PIM1) [%] | IC50 (PIM1; [2]) [µM] | remaining activity at 1 µM (JAK3) [%] | remaining activity at 10 µM (JAK3) [%] | IC50 (JAK3; [3]) [µM] | remaining activity at 1 µM (CK1ε) [%] | remaining activity at 10 µM (CK1ε) [%] | remaining activity at 1 µM (GSK3β; 10 µM ATP) [%] | IC50 (GSK3β; 10 µM ATP) [µM] | remaining activity at 10 µM (GSK3β; 10 µM ATP) [%] | remaining activity at 1 µM (ABL1) [%] | remaining activity at 10 µM (ABL1) [%] | remaining activity at 1 µM (CDK5/p25) [%] | remaining activity at 10 µM (CDK5/p25) [%] | other results |
| --- | --- | --- | --- | --- | --- | --- | --- | --- | --- | --- | --- | --- | --- | --- | --- | --- | --- | --- | --- | --- |
| CC1(C)CCC2=C(O1)c1ccccc1/C(=N/NC(=S)Nc1ccc([N+](=O)[O-])cc1)C2=O [BV3, 2-(2,2-dimethyl-5-oxo-3,4-dihydro-2H-benzo[h]chromen-6(5H)-ylidene)-N-(4nitrophen-yl)thio-carbohydrazide] | 44 | ≥ 100 | 67 | ≥ 100 | 4.15 | 18 | 4.16 | -3 | -9 | 0.115 | ≥ 100 | 98 | 58 | 1 | 7 | 52 | 35 | ≥ 100 | 44 | IC50 (GSK3β; dose–response curve, Figure 5): 1 µM |
| Cc1ccc(NC(=S)N/N=C2\C(=O)C3=C(OC(C)(C)CC3)c3ccccc32)cc1 [BV5, 2-(2,2-dimethyl-5-oxo-3,4-dihydro-2H-benzo[h]chromen-6(5H)-ylidene)-N-(p-tolyl)-thiocarbohydrazide] | 13.1 | ≥ 100 | 78 | 94 | 8.74 | 42 | 8.74 | 64 | 4 | 0.522 | 98 | 86 | 64 | 4.91 | 24 | 83 | 56 | ≥ 100 | 62 | IC50 (JAK3; JAK3, 10 µM ATP): 0.52 µM |
| CC1(C)CCC2=C(O1)c1ccccc1C(=O)C2=O [β-lap, β-Lapachone] | 4.54 | ≥ 100 | 72 | 56 | – | 42 | – | 65 | 69 | – | ≥ 100 | 94 | 67 | – | 43 | 83 | 81 | 74 | 88 | – |
